The values that follow come from US5948775A, “2- or 3-(substitutedaminoalkoxyphenyl)quinazolin-4-ones” (American Home Products Corporation, priority 1998, dated 1999).

The subject of one test is Ishikawa cells. The experiment in a line: Ishikawa Cell Alkaline Phosphatase Assay. Type of test: cell-based. The following applies: Homo sapiens, 48 h. The method, then: Ishikawa Cell Alkaline Phosphatase Assay
Cell Maintenance and Treatment:
Ishikawa cells were maintained in DMEM/F12 (50%:50%) containing phenol red+10% fetal bovine serum and the medium was supplemented with 2 mM Glutamax, 1% Pen/Strap and 1 mM sodium pyruvate. Five days prior to the beginning of each experiment (treatment of cells) the medium was changed to phenol red-free DMEM/F12+10% dextran coated charcoal stripped serum. On the day before treatment, cells were harvested using 0.5% trypsin/EDTA and plated at a density of 5×10^4 cells/well in 96-well tissue culture plates. […] Cells were treat for 48 h prior to assay. […] Sample population for at each dose was n=8.
Alkaline Phosphatase Assay:
At the end of 48 h the media is aspirated and cells are washed three times with phosphate buffered saline (PBS). 50 μL of lysis buffer (0.1 M Tris-HCl, pH 9.8, 0.2% Triton X-100) is added to each well. Plates are placed at -80° C. for a minimum of 15 minutes. Plates are thawed at 37° C. followed by the addition of 150 μL of 0.1 M Tris-HCl, pH 9.8, containing 4 mM para-nitrophenylphosphate (pNPP) to each well (final concentration, 3 mM pNPP).
Absorbance and slope calculations were made using the KineticCalc Application program (Bio-Tek Instruments, Inc., Winooski, Vt.). Results are expressed as the mean±S.D. of the rate of enzyme reaction (slope) averaged over the linear portion of the kinetic reaction curve (optical density readings every 5 minutes for 30 minutes absorbance reading).
A description of these methods is described by Holinka, C.

A further test addresses T1, estrogen receptor (Homo sapiens, UniProt P03372).
T1 construct: made in house; host or cells: Chinese Hamster Ovary (CHO) cells, ribosome-free cytosol
T1 sequence (P03372 1-595): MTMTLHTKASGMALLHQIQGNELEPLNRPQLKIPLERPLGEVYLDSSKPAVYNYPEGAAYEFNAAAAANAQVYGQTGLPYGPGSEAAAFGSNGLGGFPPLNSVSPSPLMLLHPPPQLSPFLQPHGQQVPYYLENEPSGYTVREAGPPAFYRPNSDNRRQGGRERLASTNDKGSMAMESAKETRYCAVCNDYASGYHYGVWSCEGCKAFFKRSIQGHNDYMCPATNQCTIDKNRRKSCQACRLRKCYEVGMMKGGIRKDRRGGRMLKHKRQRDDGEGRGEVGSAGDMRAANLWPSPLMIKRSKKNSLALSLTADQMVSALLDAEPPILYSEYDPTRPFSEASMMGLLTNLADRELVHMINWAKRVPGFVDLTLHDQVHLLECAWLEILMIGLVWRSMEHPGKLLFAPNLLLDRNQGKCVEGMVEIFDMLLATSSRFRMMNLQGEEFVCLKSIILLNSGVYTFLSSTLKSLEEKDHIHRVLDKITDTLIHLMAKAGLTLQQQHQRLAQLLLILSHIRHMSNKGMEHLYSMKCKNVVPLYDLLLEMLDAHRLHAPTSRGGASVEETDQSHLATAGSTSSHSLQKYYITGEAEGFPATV
The experiment in a line: In vitro estrogen receptor binding assay (competition with [^3 H]-17-β-estradiol). The method, then: Cells were harvested by scraping the surface and then the cell suspension was placed on ice. […] The cytosol was then frozen and stored at -80° C. Protein concentration of the cytosol was estimated using the BCA assay with reference standard protein.
The plate was incubated at room temperature for 2.5 h. […] Samples were counted to 2% or 10 minutes, whichever occurs first. […] Also, wells containing radioactivity but no cytosol were processed with charcoal to estimate unremovable DPM of [^3 H]
For a description of these methods, see Hulme, E. C., ed. 1992. Receptor-Ligand Interactions: A Practical Approach. IRL Press, New York.(see especially chapter 8).

In another test the target is T2, human estrogen receptor (Homo sapiens, UniProt P03372).
T2 construct: expressed in transfected cells
The experiment in a line: 2X VIT ERE Transfection Assay (luciferase, CHO cells stably transfected with human estrogen receptor). Type of test: cell-based. The following applies: 24 h. The method, then:
2X VIT ERE Transfection Assay
Cell Maintenance and Treatment
Chinese Hamster Ovary cells (CHO) which had been stably transfected with the human estrogen receptor were maintained in DMEM+10% fetal bovine serum (FBS). 48 h prior to treatment the growth medium was replaced with DMEM lacking phenol red+10% dextran coated charcoal stripped FBS (treatment medium). Cells were plated at a density of 5000 cells/well in 96-well plates containing 200 μL of medium/well.
Calcium Phosphate Transfection
Reporter DNA (Fromega plasmid pGL2 containing two tandem copies of the vitellogenin ERE in front of the minimal thymidine kinase promoter driving the luciferase gene) was combined with the β-galactosidase expression plasmid pCH110 (Pharmacia) and carrier DNA (pTZ18U) in the following ratio:
20 μg of DNA/1 mL of transfection solution
The DNA (20 μg) was dissolved in 500 μL of 250 mM sterile CaCl2 and added dropwise to 500 μL of 2X HeBS (0.28 M NaCl, 50 mM HEPES, 1.5 mM Na2 HPO4, pH 7.05) and incubated at room temperature for 20 minutes. 20 μL of this mixture was added to each well of cells and remained on the cells for 16 h. […] Each treatment condition was performed on 8 wells (n=8) which were incubated for 24 h prior to the luciferase assay.
After 24 h exposure to compounds, the media was removed and each well washed with 2X with 125 μL of PBS lacking Mg^++ and Ca^++. […] The luciferan substrate (Promega) was added in 100 μL aliquots to each well automatically by the luminometer and the light produced (relative light units) was read 10 seconds after addition.
To the remaining 5 μL of lysate 45 μL of PBS was added. […] The plates were analyzed on a Molecular Devices specrophotometric plate reader at 410 nm. […]
The luciferase data was generated as relative light units (RLUs) accumulated during a 10 second measurement and automatically transferred to a JMP (SAS Inc.) file where background RLUs were subtracted. […] The mean and standard deviations were determined from a n=8 for each treatment. […]

The test system of the next test is uterus. The conditions noted are these: background statement; cited from earlier work.
In another test the test system is bone. The following applies: background statement; cited from earlier work.
Setting [1] is: Test articles at 10^-6 M, alone, percent of response related to 1 nM 17β-estradiol (control), read-out: % Activation.
The mark [2] stands for this setting: Competition With 17-β-estradiol (0.8 nM), CHO cell cytosol.

Structures are written as SMILES. Like-named read-outs stand apart in the source and are kept apart here.

With `C[C@]12CC[C@@H]3c4ccc(O)cc4CC[C@H]3[C@@H]1CC[C@@H]2O` [17-β-estradiol, reference compound], the activation at 1 µM in the test on Ishikawa cells (setting [1]) is 100%.
On to `O=c1c2ccc(O)cc2nc(-c2ccc(O)cc2)n1-c1ccc(OCCN2CCCCC2)cc1` [Example 9, 7-Hydroxy-2-(4-hydroxy-phenyl)-3-{4-[2-(piperidin-1-yl)-ethoxy]-phenyl}-3H-quinazolin-4-one], for which the IC50 (commonly the point on the concentration scale where inhibition reaches its midpoint) on estrogen receptor (read-out: IC50) came to 6.5 µM. In addition, the activation at 1 µM in the test on Ishikawa cells (setting [1]) came out at 0%; on human estrogen receptor, 72%.
As to `O=c1c2cccc(O)c2nc(-c2ccc(OCCN3CCCCC3)cc2)n1-c1ccc(O)cc1` [Example 16, 8-Hydroxy-3-(4-hydroxy-phenyl)-2-{4-[2-(piperidin-1-yl)-ethoxy]-phenyl}-3H-quinazolin-4-one], the IC50 result on estrogen receptor (setting [2]) is given as “Binding not detected at upper limit of assay”. Further, the activation at 1 µM stood at 0% in the test on Ishikawa cells (setting [1]) and 14% at human estrogen receptor.
As for `O=c1c2cccc(O)c2nc(-c2ccc(O)cc2)n1-c1ccc(OCCN2CCCCC2)cc1` [Example 21, 8-Hydroxy-2-(4-hydroxy-phenyl)-3-[4-(2-piperidin-1-yl-ethoxy)-phenyl]-3H-quinazolin-4-one], on estrogen receptor (setting [2]), the IC50 result is listed as “Binding not detected at upper limit of assay”. Moreover, the values for the activation at 1 µM with Ishikawa cells (setting [1]) and on human estrogen receptor were 0% and 6%, respectively.
As for `O=C(c1ccc(OCCN2CCCCC2)cc1)c1c(-c2ccc(O)cc2)sc2cc(O)ccc12` [Raloxifene], the activation at 1 µM in the test on Ishikawa cells (setting [1]) turned out to be 5%. Also, the “effect on the uterus” value in the test with uterus is listed as “stimulate uterine growth in animal models to a lesser degree than Tamoxifen”. Moreover, the effect on bone entry in the test with bone is “sparing bone”.
Turning to `CC/C(=C(\c1ccccc1)c1ccc(OCCN(C)C)cc1)c1ccccc1` [Tamoxifen], the activation at 1 µM in the test with Ishikawa cells amounted to 0%. In addition, in the test on uterus, the “effect on the uterus” value is reported as “partial agonist effects in the uterus”. Also, the effect on bone result in the test with bone is reported as “increase bone mass”.
